Measurements: ChEMBL document CHEMBL1201862, “PubChem BioAssay data set” (2004)
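How tested: cells in 96-well plates exposed to compound for 48 hours at five concentrations. GI50 = concentration required for 50% inhibition of growth.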 Active and inactive are the calls of the source. Cut-off read from the data, not from the text of the source: active = GI50 up to about 1.1 µM and inactive = higher.

Legend:
Test in all cases: NCI anticancer screen, dose series, 48 h
ACHN = test system: ACHN
DMS-114 = test system: DMS-114
DMS-273 = test system: DMS-273
HCC 2998 = test system: HCC 2998
IGROV-1 = test system: IGROV-1
K562 = test system: K562
NCI-H23 = test system: NCI-H23
OVCAR-5 = test system: OVCAR-5
RXF 393 = test system: RXF 393
SK-MEL-2 = test system: SK-MEL-2
SW-620 = test system: SW-620
UACC-62 = test system: UACC-62
HCT-116 = test system: HCT-116
SF-539 = test system: SF-539
XF498 = test system: XF498
BT-549 = test system: BT-549
Hs-578T = test system: Hs-578T
MDA-MB-231 = test system: MDA-MB-231
NCI/ADR-RES = test system: NCI/ADR-RES
PC-3 = test system: PC-3

| SMILES | GI50 (ACHN) | GI50 (DMS-114) | GI50 (DMS-273) | GI50 (HCC 2998) | GI50 (IGROV-1) | GI50 (K562) | GI50 (NCI-H23) | GI50 (OVCAR-5) | GI50 (RXF 393) | GI50 (SK-MEL-2) | GI50 (SW-620) | GI50 (UACC-62) | GI50 (HCT-116) | GI50 (SF-539) | GI50 (XF498) | GI50 (BT-549) | GI50 (Hs-578T) | GI50 (MDA-MB-231) | GI50 (NCI/ADR-RES) | GI50 (PC-3) |
| --- | --- | --- | --- | --- | --- | --- | --- | --- | --- | --- | --- | --- | --- | --- | --- | --- | --- | --- | --- | --- |
| CCOC(=O)C(=O)CC(=O)C(Br)C(Br)c1ccc(Cl)cc1 (stereo not drawn) | 36 µM (inactive) | 43 µM (inactive) | 70.5 µM (inactive) | > 100 µM (inactive) | 42.5 µM (inactive) | 17.6 µM (inactive) | 30.5 µM (inactive) | > 100 µM (inactive) | 30.4 µM (inactive) | > 100 µM (inactive) | 39.6 µM (inactive) | 46 µM (inactive) | – | – | – | – | – | – | – | – |
| CC1=NOC(=O)/C1=C/c1cccc2ccccc12 | > 100 µM (inactive) | > 100 µM (inactive) | > 100 µM (inactive) | > 100 µM (inactive) | > 100 µM (inactive) | > 100 µM (inactive) | > 100 µM (inactive) | > 100 µM (inactive) | > 100 µM (inactive) | > 100 µM (inactive) | 54 µM (inactive) | > 100 µM (inactive) | > 100 µM (inactive) | > 100 µM (inactive) | – | – | – | – | – | – |
| COC(=O)/C(C#N)=C1\NC(=O)c2ccccc21 | > 100 µM (inactive) | > 100 µM (inactive) | > 100 µM (inactive) | > 100 µM (inactive) | > 100 µM (inactive) | > 100 µM (inactive) | > 100 µM (inactive) | > 100 µM (inactive) | > 100 µM (inactive) | – | > 100 µM (inactive) | > 100 µM (inactive) | > 100 µM (inactive) | > 100 µM (inactive) | – | – | – | – | – | – |
| O=C1c2ccccc2C(=O)N1CC#CCO | > 100 µM (inactive) | – | > 100 µM (inactive) | – | – | > 100 µM (inactive) | > 100 µM (inactive) | > 100 µM (inactive) | > 100 µM (inactive) | > 100 µM (inactive) | > 100 µM (inactive) | > 100 µM (inactive) | > 100 µM (inactive) | > 100 µM (inactive) | > 100 µM (inactive) | – | – | – | – | – |
| CC[C@H](C)N(CCN)C(=O)c1cc2ccccc2c(-c2ccccc2Cl)n1 | 14.9 µM (inactive) | 13.9 µM (inactive) | 13.6 µM (inactive) | 2.72 µM (inactive) | 8.09 µM (inactive) | 3.05 µM (inactive) | 12.8 µM (inactive) | 14.7 µM (inactive) | 6.55 µM (inactive) | 18.8 µM (inactive) | 14.9 µM (inactive) | 10.8 µM (inactive) | 2.85 µM (inactive) | 2.15 µM (inactive) | – | – | – | – | – | – |
| CC(C)=CC(=O)CC(=O)C(=O)Nc1ccc(Cl)c(Cl)c1 | > 100 µM (inactive) | > 100 µM (inactive) | > 100 µM (inactive) | > 100 µM (inactive) | > 100 µM (inactive) | > 100 µM (inactive) | > 100 µM (inactive) | > 100 µM (inactive) | > 100 µM (inactive) | > 100 µM (inactive) | > 100 µM (inactive) | > 100 µM (inactive) | > 100 µM (inactive) | > 100 µM (inactive) | – | – | – | – | – | – |
| CC(O)c1cc2c(s1)C(=O)c1ccsc1C2=O (stereo not drawn) | 0.117 µM (active) | – | – | 0.223 µM (active) | 0.468 µM (active) | 0.122 µM (active) | 0.0169 µM (active) | 0.14 µM (active) | 0.213 µM (active) | 0.126 µM (active) | 0.138 µM (active) | 0.0262 µM (active) | 0.21 µM (active) | 0.0509 µM (active) | – | 0.0815 µM (active) | 0.107 µM (active) | 0.0964 µM (active) | 0.211 µM (active) | 0.0632 µM (active) |
| N#CC1(Nc2ccc(-c3ccc(NC4(C#N)CCCC4)cc3)cc2)CCCC1 | 34.9 µM (inactive) | – | – | > 100 µM (inactive) | > 100 µM (inactive) | > 100 µM (inactive) | > 100 µM (inactive) | > 100 µM (inactive) | > 100 µM (inactive) | > 100 µM (inactive) | > 100 µM (inactive) | > 100 µM (inactive) | > 100 µM (inactive) | 11.8 µM (inactive) | – | > 100 µM (inactive) | > 100 µM (inactive) | > 100 µM (inactive) | > 100 µM (inactive) | > 100 µM (inactive) |
